How the values were obtained:
[1] = test system: KM12; format: cell-based
[2] = test system: OVCAR-4; format: cell-based
[3] = test system: Renal Cancer; format: cell-based
[4] = test system: Non-small Cell Lung Cancer; format: cell-based
[5] = test system: HCT-116; format: cell-based
[6] = test system: MOLT-4; format: cell-based
[7] = test system: Colon Cancer; format: cell-based
[8] = test system: Prostate Cancer; format: cell-based
[9] = test system: SK-OV-3; format: cell-based
[10] = test system: SR; format: cell-based
[11] = test system: Ovarian Cancer; format: cell-based
[12] = test system: T-47D; format: cell-based
[13] = test system: CNS Cancer; format: cell-based
[14] = test system: DU-145; format: cell-based
[15] = test system: SNB-75; format: cell-based
[16] = test system: MCF-7 cells; assay: Acridine orange/ethidium bromide staining, morphology; format: cell-based, human; settings: 5 µM, 24 h, MCF-7, AO/EB staining
Experimental: To display morphological changes in the MCF-7 cells after 24 h of treatment by lead compound Les-6416 and the positive control doxorubicin, we performed acridine orange and ethidium bromide staining. MCF-7 cells were seeded in 6-well plates at 1 × 10^5 cells per well in 2 mL medium, followed by incubation for 24 h. Afterwards, the cells were treated with lead compound Les-6416 at a concentration equal to 5 µM and DOX in a concentration equal to 0.5 µM. Next, cells were washed with 1 mL of PBS per well. Subsequently, double staining was performed using 10 µL of AO and EB, incubated at room temperature for 10 min. After that, cells were washed with PBS. Images were obtained with the use of a Nikon ECLIPSE Ti fluorescence microscope (Nikon, Tokyo, Japan). Images were analyzed using ImageJ software version 1.54k (Bethesda, MD, USA).
To analyze morphological changes in MCF-7 cells after 24 h of treatment, we performed the double staining with acridine orange and ethidium bromide. This method provides the capability to observe different stages of cell death depending on cell membrane integrity and chromatin condensation. Green fluorescence can be observed due to acridine orange staining, that penetrates all cells, while red coloring is contributed to ethidium bromide, which can only penetrate cells with injured cell membranes. […]

[17] = test system: p53; assay: p53 concentration, SimpleStep ELISA; format: cell-based, human; settings: 5 µM, 24 h, MCF-7
Experimental: To determine the effects of the new 4-thiazolidinone derivatives and the reference drug on the concentration of p53 and cytochrome C in MCF-7 cell lysates or supernatants after 24 h of treatment, highly sensitive SimpleStep ELISA (enzyme-linked immunosorbent assay) kits (Abcam, Cambridge, UK) were applied. The cells were collected and washed thrice with cold PBS and centrifuged at 1000× g for 5 min at 4 °C. Next, the cells were suspended in lysis buffer to acquire cell lysates. Concurrently, the supernatants, acquired after centrifugation, were frozen immediately at −80 °C. The standards, samples, and antibody cocktail were added to the appropriate microtiter plate wells, followed by 1 h incubation at room temperature. The content of microplate wells was extracted, and the wells were washed thrice. Afterwards, a TMB development solution was added to each well. The enzyme–substrate reaction was terminated with a stop solution. The change in color was assessed by UV-VIS Helios Gamma (Unicam/ThermoFisher Scientific Inc., Cleveland, OH, USA) at 450 ± 2 nm wavelength.
Both p53 and cytochrome C proteins play pivotal roles in the process of apoptosis. For this reason, concentrations of the mentioned proteins were measured in MCF-7 cells after 24 h treatment with the tested compounds (Les-6416, Les-6418, Les-6381, Les-6423, Les-6424) in concentrations of 5 µM.

COc1cc(NC2=NC(=O)C(=Cc3c[nH]c4ccccc34)S2)cc(OC)c1OC [Les-6418, 5-((1H-Indol-3-yl)methylene)-2-((3,4,5-trimethoxyphenyl)amino)thiazol-4(5H)-one]
GI50 ([1]; Homo sapiens, KM12, 48 h): 977 nM
CC50 ([1]; Homo sapiens, KM12, 48 h, read-out: LC50 (the source's name)): 70.7 µM
TGI ([1]; KM12, 48 h): 16.8 µM
SI (TGI) ([1]; KM12, MG_MID_60/value): 1.11
GI50 ([2]; Homo sapiens, OVCAR-4, 48 h): 2880 nM
CC50 ([2]; Homo sapiens, OVCAR-4, 48 h, read-out: LC50 (the source's name)): 35.3 µM
TGI ([2]; OVCAR-4, 48 h): 10.6 µM
SI (TGI) ([2]; OVCAR-4, MG_MID_60/value): 1.75
GI50 ([3]; Homo sapiens, Renal Cancer subpanel mean, read-out: MG_MID GI50): 4.22 µM
CC50 ([3]; Homo sapiens, Renal Cancer subpanel mean, read-out: MG_MID LC50): 44.6 µM
MG_MID TGI ([3]; Renal Cancer subpanel mean): 14.5 µM
SI (MG_MID TGI) ([3]; Renal Cancer subpanel, MG_MID_60/value): 1.28
GI50 ([4]; Homo sapiens, Non-small Cell Lung Cancer subpanel mean, read-out: MG_MID GI50): 3.66 µM
CC50 ([4]; Homo sapiens, Non-small Cell Lung Cancer subpanel mean, read-out: MG_MID LC50): 61.1 µM
MG_MID TGI ([4]; Non-small Cell Lung Cancer subpanel mean): 15.6 µM
SI (MG_MID TGI) ([4]; Non-small Cell Lung Cancer subpanel, MG_MID_60/value): 1.19
TGI ([5]; HCT-116, 48 h): 10.2 µM
SI (TGI) ([5]; HCT-116, MG_MID_60/value): 1.82
GI50 ([5]; Homo sapiens, HCT-116, 48 h): 1100 nM
CC50 ([5]; Homo sapiens, HCT-116, 48 h, read-out: LC50 (the source's name)): 50.6 µM
GI50 ([6]; Homo sapiens, MOLT-4, 48 h): 2630 nM
CC50 ([6]; Homo sapiens, MOLT-4, 48 h, read-out: LC50 (the source's name)): > 100 µM
TGI ([6]; MOLT-4, 48 h): 26.0 µM
SI (GI50) ([6]; MOLT-4, MG_MID_60/value): 1.24
SI (TGI) ([6]; MOLT-4, MG_MID_60/value): 0.72
MG_MID TGI ([7]; Colon Cancer subpanel mean): 15.5 µM
SI (MG_MID TGI) ([7]; Colon Cancer subpanel, MG_MID_60/value): 1.20
GI50 ([7]; Homo sapiens, Colon Cancer subpanel mean, read-out: MG_MID GI50): 2480 nM
CC50 ([7]; Homo sapiens, Colon Cancer subpanel mean, read-out: MG_MID LC50): 55.6 µM
GI50 ([8]; Homo sapiens, Prostate Cancer subpanel mean, read-out: MG_MID GI50): 3.61 µM
CC50 ([8]; Homo sapiens, Prostate Cancer subpanel mean, read-out: MG_MID LC50): 70.8 µM
MG_MID TGI ([8]; Prostate Cancer subpanel mean): 19.9 µM
SI (MG_MID TGI) ([8]; Prostate Cancer subpanel, MG_MID_60/value): 0.93
GI50 ([9]; Homo sapiens, SK-OV-3, 48 h): 2560 nM
CC50 ([9]; Homo sapiens, SK-OV-3, 48 h, read-out: LC50 (the source's name)): 38.5 µM
TGI ([9]; SK-OV-3, 48 h): 10.3 µM
SI (TGI) ([9]; SK-OV-3, MG_MID_60/value): 1.81
TGI ([10]; 48 h): 29.9 µM
GI50 ([10]; Homo sapiens, 48 h): 394 nM
CC50 ([10]; Homo sapiens, 48 h, read-out: LC50 (the source's name)): > 100 µM
SI (TGI) ([10]; MG_MID_60/value): 0.62
GI50 ([11]; Homo sapiens, Ovarian Cancer subpanel mean, read-out: MG_MID GI50): 4.61 µM
CC50 ([11]; Homo sapiens, Ovarian Cancer subpanel mean, read-out: MG_MID LC50): 50.5 µM
MG_MID TGI ([11]; Ovarian Cancer subpanel mean): 16.7 µM
SI (MG_MID TGI) ([11]; Ovarian Cancer subpanel, MG_MID_60/value): 1.11
TGI ([12]; 48 h): 19.7 µM
GI50 ([12]; Homo sapiens, T47D, 48 h): 3.58 µM
CC50 ([12]; Homo sapiens, T47D, 48 h, read-out: LC50 (the source's name)): 61.2 µM
SI (TGI) ([12]; MG_MID_60/value): 0.94
MG_MID TGI ([13]; CNS Cancer subpanel mean): 14.0 µM
SI (MG_MID TGI) ([13]; CNS Cancer subpanel, MG_MID_60/value): 1.33
GI50 ([13]; Homo sapiens, CNS Cancer subpanel mean, read-out: MG_MID GI50): 3.24 µM
CC50 ([13]; Homo sapiens, CNS Cancer subpanel mean, read-out: MG_MID LC50): 46.1 µM
TGI ([14]; DU-145, 48 h): 17.2 µM
SI (TGI) ([14]; DU-145, MG_MID_60/value): 1.08
GI50 ([14]; Homo sapiens, DU-145, 48 h): 4.63 µM
CC50 ([14]; Homo sapiens, DU-145, 48 h, read-out: LC50 (the source's name)): 47.4 µM
GI50 ([15]; Homo sapiens, SNB-75, 48 h): 1240 nM
CC50 ([15]; Homo sapiens, SNB-75, 48 h, read-out: LC50 (the source's name)): 11.9 µM
TGI ([15]; SNB-75, 48 h): 3.63 µM
SI (TGI) ([15]; SNB-75, MG_MID_60/value): 5.12

COc1cc(NC2=NC(=O)C(=Cc3ccc4cc[nH]c4c3)S2)cc(OC)c1OC [Les-6416, 5-((1H-Indol-6-yl)methylene)-2-((3,4,5-trimethoxyphenyl)amino)thiazol-4(5H)-one]
morphological changes [16]: cell shrinkage and chromatin condensation
Concentration of p53 [17]: 2.27 ± 0.55 ng/mL

— PMC12190436, “5-Ene-2-arylaminothiazol-4(5H)-ones Induce Apoptosis in Breast Cancer Cells” (Cells, 2025)
